This is an account of results in PubChem BioAssay (NCI).

“And” between values parts separate entries of the source, which are not always exact repeats. Equal values may be shown once.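 Assay format: 96-well plates, 48-hour exposure. At the GI50, growth is halved. The concentration for full growth arrest is given as TGI.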

Among the test systems are A549 NSCLC; CAKI-1 renal; COLO 205 colon; HT29 colon; K-562 leukemia; NCI-H23 lung; OVCAR-3 ovarian; RPMI-8226 leukemia; SF-268 CNS; SNB-75 CNS.
Assay in all cases: NCI anticancer screen, dose series, 48 h

Regarding `O=C(NC(Cc1ccccc1)C(=O)CCl)OCc1ccccc1` (centres undefined), the GI50 in the assay with A549 NSCLC is 13.9 µM; in the assay with CAKI-1 renal, 7.52 µM; in the assay with COLO 205 colon, 10 µM; in the assay on HT29 colon it was 3.53 µM; with K-562 leukemia, 2.65 µM; in the assay with NCI-H23 lung, 10.5 µM. Moreover, the GI50 was 3.65 µM in the assay with OVCAR-3 ovarian, 2.44 µM in the assay with RPMI-8226 leukemia, 4.36 µM in the assay with SF-268 CNS and 4.77 µM in the assay with SNB-75 CNS. For the same compound, the TGI is 33.9 µM and 36.2 µM in the assay with A549 NSCLC; 21.2 µM and 17.3 µM in the assay on CAKI-1 renal; 24.1 µM and 24 µM in the assay on COLO 205 colon; 16.5 µM and 37.3 µM with HT29 colon; > 100 µM and 40.1 µM with K-562 leukemia; 30.7 µM and 26.1 µM in the assay with NCI-H23 lung. The TGI was 11.8 µM and 18.7 µM in the assay with OVCAR-3 ovarian; 16.3 µM and 26.3 µM with SF-268 CNS; 18.9 µM and 30.2 µM in the assay on SNB-75 CNS.
For `[Au+].c1c[n-]cn1.c1ccc([PH+](c2ccccc2)c2ccccc2)cc1`, the GI50 with A549 NSCLC was 11.7 µM; in the assay on CAKI-1 renal, 4.69 µM; in the assay on COLO 205 colon, 1.99 µM; in the assay with HT29 colon it was 8 µM; with K-562 leukemia, 2.61 µM; with NCI-H23 lung, 5.85 µM. In addition, the GI50 with OVCAR-3 ovarian was 2.43 µM; in the assay with RPMI-8226 leukemia, 8.93 µM; in the assay on SF-268 CNS, 3.32 µM; in the assay on SNB-75 CNS, 15.2 µM. Moreover, the TGI in the assay with A549 NSCLC was found to be 42.6 µM; in the assay on CAKI-1 renal it was 16.4 µM; in the assay on COLO 205 colon, 4.07 µM; in the assay on HT29 colon it was 24.7 µM; with K-562 leukemia, 30.4 µM; in the assay with NCI-H23 lung, 25.1 µM. The TGI was 5.2 µM in the assay with OVCAR-3 ovarian, over 90.8 µM in the assay with RPMI-8226 leukemia, 28.3 µM in the assay on SF-268 CNS and 33.7 µM with SNB-75 CNS.
`O=C1Nc2c(ccc(Cl)c2Cl)/C1=C\c1cc(C(F)(F)F)cc(C(F)(F)F)c1`: the GI50 in the assay with A549 NSCLC is 4.81 µM; in the assay on CAKI-1 renal it was 0.399 µM; in the assay on COLO 205 colon, 1.32 µM; in the assay on HT29 colon, 1.95 µM; with K-562 leukemia, 1.55 µM; with NCI-H23 lung, 4.95 µM. The GI50 in the assay on OVCAR-3 ovarian was 1.1 µM; with RPMI-8226 leukemia, 0.115 µM; in the assay on SF-268 CNS, 1.86 µM; in the assay on SNB-75 CNS it was 1.05 µM. The TGI stood at 13 µM in the assay on A549 NSCLC; 7.85 µM in the assay with CAKI-1 renal; 4.84 µM in the assay with COLO 205 colon; 6.68 µM in the assay on HT29 colon; 5.97 µM in the assay on K-562 leukemia; 21.6 µM in the assay on NCI-H23 lung. The TGI with OVCAR-3 ovarian is 4.27 µM; in the assay with RPMI-8226 leukemia, 1.45 µM; in the assay on SF-268 CNS it was 8.51 µM; in the assay with SNB-75 CNS it was 7.48 µM.
Turning to `O=C(Nc1nc(-c2ccccc2Cl)cs1)c1cc(-c2ccc(Cl)cc2)nc2ccc(Cl)cc12`, the GI50 in the assay on A549 NSCLC is 39.2 µM; in the assay on CAKI-1 renal it was 19.6 µM; with COLO 205 colon, 33.6 µM; in the assay on HT29 colon, 3.52 µM; in the assay on K-562 leukemia, 3.66 µM; with NCI-H23 lung it was 3.8 µM. Also, the GI50 in the assay on OVCAR-3 ovarian is 2.64 µM; in the assay with RPMI-8226 leukemia, 1.38 µM; in the assay on SF-268 CNS, 2.37 µM; in the assay on SNB-75 CNS, 3.38 µM. For the same compound, the TGI in the assay on A549 NSCLC, in the assay on CAKI-1 renal, in the assay on COLO 205 colon, in the assay on HT29 colon, in the assay on K-562 leukemia and with NCI-H23 lung was over 100 µM in each case. Moreover, the TGI in the assay on OVCAR-3 ovarian was 13.1 µM; in the assay with RPMI-8226 leukemia it was over 100 µM; in the assay on SF-268 CNS it was 32.9 µM; in the assay with SNB-75 CNS, over 100 µM.
`COc1cc(/C=C2\CC3C4CCC5=CC(=O)CC[C@]5(C)C4CC[C@]3(C)C2=O)ccc1OCCN1CCCCC1` (some centres undefined): the GI50 is 11 µM in the assay with A549 NSCLC; 2.29 µM in the assay with CAKI-1 renal; 5.34 µM in the assay on COLO 205 colon; 3.37 µM in the assay with HT29 colon; 2.8 µM in the assay with K-562 leukemia; 5.33 µM with NCI-H23 lung. In addition, the GI50 with OVCAR-3 ovarian was 1.83 µM; in the assay with RPMI-8226 leukemia, 1.88 µM; with SF-268 CNS, 4.72 µM; with SNB-75 CNS it was 6.97 µM. Further, the TGI stood at 41.1 µM in the assay on A549 NSCLC; 5.89 µM with CAKI-1 renal; 35.2 µM with COLO 205 colon; 64.8 µM in the assay with HT29 colon; 16.6 µM with K-562 leukemia; 25.7 µM in the assay on NCI-H23 lung. For the same compound, the TGI with OVCAR-3 ovarian turned out to be 4.59 µM; in the assay on RPMI-8226 leukemia it was 5.05 µM; in the assay on SF-268 CNS, 16.4 µM; in the assay with SNB-75 CNS, 24.8 µM.
Regarding `COc1c(OC)c(OC)c(-c2cc(=O)c3c(OC)c(OC)c(OC)c(OC)c3o2)c(OC)c1OC`, the TGI in the assay on A549 NSCLC is over 100 µM; in the assay with CAKI-1 renal, over 100 µM; in the assay on COLO 205 colon it was over 100 µM; in the assay with HT29 colon it was 86.4 µM; with K-562 leukemia, over 100 µM; in the assay on NCI-H23 lung, 95.7 µM. Further, the TGI is 33.5 µM with OVCAR-3 ovarian, over 100 µM with RPMI-8226 leukemia, over 100 µM in the assay on SF-268 CNS and over 100 µM in the assay with SNB-75 CNS.
Take `CC(C)(N)C(=O)N[C@@H]1C(=O)N2[C@@H]1SC(C)(C)[C@@H]2C(=O)O`: the TGI in the assay with A549 NSCLC, in the assay on CAKI-1 renal, in the assay with COLO 205 colon, in the assay with HT29 colon, in the assay on K-562 leukemia and in the assay on NCI-H23 lung was over 100 µM in each case. Further, the TGI in the assay with OVCAR-3 ovarian, in the assay with RPMI-8226 leukemia, with SF-268 CNS and with SNB-75 CNS was over 100 µM throughout.
`COc1ccc(Nc2ncccc2C(=O)NCc2cn(Cc3cccc(Oc4ccccc4)c3)nn2)c(OC)c1`: the GI50 was 3.7 µM in the assay with A549 NSCLC; 1.26 µM with CAKI-1 renal; 2.11 µM in the assay with COLO 205 colon; 1.47 µM in the assay with HT29 colon; 1.58 µM with K-562 leukemia; 2.18 µM in the assay with NCI-H23 lung. Further, the GI50 with OVCAR-3 ovarian was 1.11 µM; in the assay on RPMI-8226 leukemia, 5.33 µM; with SF-268 CNS it was 3.34 µM; in the assay on SNB-75 CNS it was 3.64 µM. Further, the TGI with A549 NSCLC is over 100 µM; with CAKI-1 renal, over 100 µM; in the assay on COLO 205 colon, 5.7 µM; with HT29 colon, 13.5 µM; in the assay with K-562 leukemia it was over 100 µM; in the assay on NCI-H23 lung, over 100 µM. Moreover, the TGI in the assay on OVCAR-3 ovarian was 4.78 µM; in the assay with RPMI-8226 leukemia, over 100 µM; with SF-268 CNS, over 100 µM; in the assay with SNB-75 CNS it was over 84.5 µM.
